Test results reported in ChEMBL document CHEMBL3994621, “Curculactones A and B induced the differentiation of C3H10T1/2 and MC3T3-E1 cells to osteoblasts” (Bioorg Med Chem Lett, 2017).
Activity calls are given as the source filed them. The rule behind the calls is not given here.

Assays:
[1] = tested on: C3H 10T1/2; experiment: Cytotoxicity against mouse C3H10T1/2 cells assessed as reduction in cell viability up to 5 uM after 48 hrs by MTT assay; format: cell-based; conditions: c3h 10t1/2, 48 h
[2] = tested on: C3H 10T1/2; experiment: Induction of osteoblast differentiation in mouse C3H10T1/2 cells assessed as increase in Dlx5 mRNA expression at 5 uM after 4 days by RT-PCR method; format: functional, cell-based
[3] = tested on: C3H 10T1/2; experiment: Induction of osteoblast differentiation in mouse C3H10T1/2 cells assessed as increase in Runx2 mRNA expression at 5 uM after 4 days by RT-PCR method; format: functional, cell-based
[4] = tested on: C3H 10T1/2; experiment: Induction of osteoblast differentiation in mouse C3H10T1/2 cells assessed as increase in ALP mRNA expression at 5 uM after 4 days by RT-PCR method; format: functional, cell-based
[5] = tested on: C3H 10T1/2; experiment: Induction of osteoblast differentiation in mouse C3H10T1/2 cells assessed as increase in osteocalcin mRNA expression at 5 uM after 4 days by RT-PCR method; format: functional, cell-based
[6] = tested on: MC3T3-E1; experiment: Induction of osteoblast differentiation in […] MC3T3-E1 cells assessed as increase in Dlx5 mRNA expression at 5 uM after 4 days by RT-PCR method; format: functional, cell-based
[7] = tested on: MC3T3-E1; experiment: Induction of osteoblast differentiation in […] MC3T3-E1 cells assessed as increase in Runx2 mRNA expression at 5 uM after 4 days by RT-PCR method; format: functional, cell-based
[8] = tested on: MC3T3-E1; experiment: Induction of osteoblast differentiation in […] MC3T3-E1 cells assessed as increase in ALP mRNA expression at 5 uM after 4 days by RT-PCR method; format: functional, cell-based
[9] = tested on: MC3T3-E1; experiment: Induction of osteoblast differentiation in […] MC3T3-E1 cells assessed as increase in osteocalcin mRNA expression at 5 uM after 4 days by RT-PCR method; format: functional, cell-based
[10] = tested on: MC3T3-E1; experiment: Induction of osteoblast differentiation in […] MC3T3-E1 cells assessed as increase in ALP activity at 5 uM after 4 days using BCIP/NBT liquid substrate; format: functional, cell-based
[11] = tested on: MC3T3-E1; experiment: Induction of mineralization in […] MC3T3-E1 cells at 5 uM after 14 days by alizarin red S staining based assay; format: functional, cell-based
[12] = Solubility of the compound in DMSO; format: physicochemical

COc1cc([C@H]2CC(=O)O[C@H]2C)ccc1O [CURCULACTONE A]
Activity [1]: Non-Toxic | Activity [2]: Active | Activity [3]: Active | Activity [4]: Active | Activity [5]: Active | Activity [6]: Active | Activity [7]: Active | Activity [8]: Active | Activity [9]: Active | Activity [10]: Active | Activity [11]: Active | solubility [12]: Soluble

COc1cc(O)cc([C@@H]2CC(=O)O[C@H]2C)c1 [CURCULACTONE B]
Activity [1]: Non-Toxic | Activity [2]: Active | Activity [3]: Active | Activity [4]: Active | Activity [5]: Active | Activity [6]: Active | Activity [7]: Active | Activity [8]: Active | Activity [9]: Active | Activity [10]: Active | Activity [11]: Active | solubility [12]: Soluble
